We go through one molecule from article PMC12057336 (Antimicrobial Agents and Chemotherapy, 2025).

The target of this series is T1, human OATP2B1 (Homo sapiens, UniProt O94956).
T1 sequence (O94956 1-709): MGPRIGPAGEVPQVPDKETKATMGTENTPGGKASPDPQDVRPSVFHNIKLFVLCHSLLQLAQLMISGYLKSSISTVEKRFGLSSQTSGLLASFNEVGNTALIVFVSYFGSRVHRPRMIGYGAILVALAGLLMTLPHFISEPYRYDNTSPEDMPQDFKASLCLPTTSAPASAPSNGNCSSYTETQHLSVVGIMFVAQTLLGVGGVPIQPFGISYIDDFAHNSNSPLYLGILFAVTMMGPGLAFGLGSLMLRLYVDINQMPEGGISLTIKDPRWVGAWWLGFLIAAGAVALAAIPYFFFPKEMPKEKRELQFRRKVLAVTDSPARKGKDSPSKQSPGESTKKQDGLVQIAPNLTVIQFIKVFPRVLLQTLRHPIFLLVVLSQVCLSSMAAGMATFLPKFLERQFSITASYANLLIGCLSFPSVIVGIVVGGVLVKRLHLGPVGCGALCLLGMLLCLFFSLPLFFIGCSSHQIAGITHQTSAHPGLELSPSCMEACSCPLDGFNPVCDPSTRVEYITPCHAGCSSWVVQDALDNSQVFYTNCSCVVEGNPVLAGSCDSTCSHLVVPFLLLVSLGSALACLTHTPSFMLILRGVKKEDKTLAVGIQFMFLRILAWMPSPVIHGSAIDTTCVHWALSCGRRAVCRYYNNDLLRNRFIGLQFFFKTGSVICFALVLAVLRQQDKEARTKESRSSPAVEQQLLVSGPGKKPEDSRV
Kind of series: Uptake in OATP2B1-transfected HEK293 cells. Particulars: 5 µM; 10 min; 37°C; vs mock cells. The protocol: OATP1B1-, OATP1B3-, OATP2B1-, NTCP-, OAT1-, and OAT3-transfected HEK293 cells were cultured in DMEM supplemented with 10% FBS, 100 U/mL penicillin-streptomycin at 37°C with 95% relative humidity atmosphere containing 5% CO2. All cells were seeded in 24-well plates at a density of 4 × 10^5 cells/well and cultured for 1–2 days until they reached 80%–90% confluence. Prior to the initiation of uptake studies, the cells were washed twice with HBSS buffer at 37°C. Membrane vesicles were stored at −80°C and thawed at 37°C prior to the initiation of the studies.
All uptake tests were performed in triplicates. The activities of transporter-transfected HEK293 cells were evaluated using relevant positive substrates and inhibitors. E17G (5 µM, OATP1B1 and OATP1B3), ES (2 µM, OATP2B1), ES (5 µM, OAT3), TCA (10 µM, NTCP), and PAH (20 µM, OAT1) were used as substrates of the transporters. The inhibitors for each transporter were rifampicin (200 µM, OATP1B1 and OATP1B3), erlotinib (10 µM, OATP2B1), CsA (20 µM, NTCP), and probenecid (200 µM, OAT1 and OAT3).
The cells were washed three times with ice-cold HBSS buffer. […] The total protein concentration was measured using a BCA Protein Assay Kit. The uptake rates of HEK293-OATP1B1, HEK293-OATP1B3, HEK293-OATP2B1, HEK293-NTCP, HEK293-OAT1, HEK293-OAT3, and mock cells were calculated. […]

As to `CC(=O)NC[C@H]1CN(c2ccc(N3CCOCC3)c(F)c2)C(=O)O1` [Linezolid], the “substrate for OATP2B1” value is “not a substrate”.
